The subject of one test is HCC1806 cells. Nature of the test: Cell proliferation assay (HCC1806). Type of test: cell-based. The settings on record: 7 days. The method, then: (§1) Cells are counted, diluted to desired density and 40 μL of cell suspension is added into each 384-well tissue-culture treated plates. Plates are incubated in Tissue Culture incubator at 37° C./5% C02 overnight.
(§2) Next day, 40 nl test compounds that are prepared from source plates are transferred to the seeded cells from overnight. Plates are incubated at 37° C./5% C02 for a total of 7 days. After 7-day incubation, plates are equilibrated to room temperature and 30 ul of Cell Counting-Lite is added to each well for a 30 min incubation followed by reading on EnVision.
(§3) The letter codes for the cell proliferation assay in A2780, HCC1806, and MDA-MB-436 cells include: A (<10 nM), B (>10-100 nM), C (>100-1000 nM), D (>1000-10000 nM), E (>10000 nM), and “-” is not tested.

The subject of a further test is MDA-MB-436 cells. Nature of the test: Cell proliferation assay (MDA-MB-436). In kind it is cell-based. As to conditions: 7 days. The method, then:
as §1, §2, §3

The target in test [1] is T1, PARP1 (Homo sapiens, UniProt P09874). Nature of the test: PARP trapping assay in U2OS cells. Also on record: endogenous in cells; host or cells: U2OS. In kind it is cell-based. As to conditions: U2OS cells, MMS, 4 hrs; read-out: PARP Trapping (U2OS). As to the method:
U2OS cells are seeded at 15,000 cells/well in 90 ul medium and incubated in the TC incubator for overnight.
Next day, test compounds are prepared in a source plate along with addition of DNA damage reagent MMS simultaneously and 10 ul of the diluted mixture is added to the cell plate and incubated for 4 hrs under T/C conditions.
After 4 hrs, following aspiration and washing, add 100 ul of cold cytoskeleton removal buffer (0.5% Triton X-100) and incubated for 10 min. At the end of incubation, slowly the buffer is removed, and cells are fixed with ice cold MeOH for 15 min at −20C. Followed by wash steps, cells are blocked with 1×PBS/3% BSA/0.05% Tween for 1 h at room temperature.
Cells are stained with anti PARP1 antibody (abeam ab227244, 1:1000), in 1×PBS/1% BSA overnight at 4C.
Wash and add DAPI, scan cells in Celigo.
Data Analysis: DAPI staining is used to segment nuclei and AF488 fluorescence intensity per nucleus is measured.
(§4) The letter codes for the PARP1-enzyme assay include: A (<1 nM), B (>1-10 nM), C (>10-100 nM), D (>100-1000 nM), E (>1000 nM), and “-” is not tested. The letter codes for the PARP trapping assay, and parylation assay include: A (<10 nM), B (>10-100 nM), C (>100-1000 nM), […], E (>10000 nM), and “-” is not tested.
Target sequence in this assay (P09874 whole entry): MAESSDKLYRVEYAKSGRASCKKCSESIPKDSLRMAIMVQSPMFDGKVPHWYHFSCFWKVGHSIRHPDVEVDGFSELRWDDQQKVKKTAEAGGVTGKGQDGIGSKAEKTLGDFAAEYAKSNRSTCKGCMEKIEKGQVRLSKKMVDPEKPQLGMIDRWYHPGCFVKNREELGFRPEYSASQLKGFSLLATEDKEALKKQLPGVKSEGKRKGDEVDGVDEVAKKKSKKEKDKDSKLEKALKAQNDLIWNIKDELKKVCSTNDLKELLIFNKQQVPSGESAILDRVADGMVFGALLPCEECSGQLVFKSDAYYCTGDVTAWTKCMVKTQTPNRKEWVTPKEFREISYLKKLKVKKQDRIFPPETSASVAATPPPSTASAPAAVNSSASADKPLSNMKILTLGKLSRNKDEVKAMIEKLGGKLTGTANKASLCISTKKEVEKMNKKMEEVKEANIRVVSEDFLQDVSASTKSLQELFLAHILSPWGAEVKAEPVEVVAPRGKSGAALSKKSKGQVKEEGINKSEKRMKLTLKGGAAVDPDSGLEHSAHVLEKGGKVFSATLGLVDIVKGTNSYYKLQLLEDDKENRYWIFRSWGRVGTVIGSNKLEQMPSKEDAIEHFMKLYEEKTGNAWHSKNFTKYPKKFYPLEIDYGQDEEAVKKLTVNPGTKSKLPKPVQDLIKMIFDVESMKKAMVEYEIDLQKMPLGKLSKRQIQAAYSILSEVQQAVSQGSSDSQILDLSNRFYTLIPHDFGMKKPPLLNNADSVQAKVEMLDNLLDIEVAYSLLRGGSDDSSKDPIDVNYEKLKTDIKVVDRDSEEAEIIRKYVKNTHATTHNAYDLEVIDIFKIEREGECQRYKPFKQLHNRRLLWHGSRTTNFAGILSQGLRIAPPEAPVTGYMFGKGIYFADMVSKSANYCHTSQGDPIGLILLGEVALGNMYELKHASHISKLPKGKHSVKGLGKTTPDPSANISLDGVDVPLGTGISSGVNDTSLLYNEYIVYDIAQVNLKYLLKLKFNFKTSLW

Another test concerns A2780 cells. Nature of the test: Cell proliferation assay (A2780). In kind it is cell-based. As to conditions: 7 days. As to the method: as §1, §2, §3
The subject of test [2] is Poly/Mono-ADP Ribose in U2OS cells. Nature of the test: PAR in cell western assay (parylation) in U2OS cells. In kind it is cell-based. The settings on record: read-out: Parylation (U2OS). As to the method:
U2OS cells are seeded at 2667 cells per well in 24 ul medium into poly-D lysine-coated 384 well plate and incubated in the TC incubator for O/N
The next day, test comps are diluted in a source plate and 6 μL of the diluted comp is added to the cell plate; mixed well and incubated for 6 hrs. DNA damage is induced with 2 mM H2O2 for 10 min. After discarding the medium, cells are fixed in ice cold Methanol at for 20 min at −20C. After a wash step at room temperature, cells are permeabilized with 0.05% NP-40 in PBS for 10 min, followed by wash steps. Cells are blocked with 1% BSA, at room temperature for 1 hr. Cells are stained with anti mono/polyADP ribose antibody (E6F6A, Cell signaling, 1:5000) in 1×PBS/1% BSA/0.05% Tween o/n at 4C.
Next Day, cells are washed and incubated with anti-Rabbit 800CV (Licor antibody, 1:500) and CellTag 700 (Licor, 1:800) in 1×PBS/1% BSA/0.05% Tween for 1 h. After washing, plates are scanned using LICOR and are quantified.
Parylation inhibition is reported as % control inhibition.
as §4

Test [3] has as its target T1, PARP1. Nature of the test: PARP1-enzyme assay (NAD/NADH-Glo biochemical assay). The settings on record: recombinant PARP1, NAD+ consumption. As to the method:
The PARP enzyme catalyzes the transfer of ADP-Ribose from NAD+ onto PAR chains/histone substrates. The catalytic cycle is monitored indirectly with the NAD/NADH-Glo Assay kit from Promega. […] NAD+ consumed is determined by comparison to the no enzyme control.
• Recombinant PARP1 • NAD+/NAHD-Glow assay Kit • Activated DNA, 10 μg/mL • NAD+(Nicotinamide Adenine Dinucleotide), 500 nM • Protein substrate for PARP1: Core Histone from chicken, 10 μg/mL
as §4
Target sequence in this assay (P09874 whole entry, species assumed): as the sequence (P09874 whole entry) above

Setting [4] is: Homo sapiens, U2OS cells, 6 hrs, 2 mM H2O2.

Read-outs that look alike come from different tables or passages of the source.

In the case of `CC(C)(C)OC(=O)N1CCCC(c2cccc(Oc3cnnc(N4CCC(OC5CCN(CC(=O)N6CCN(C(=O)c7cc(Cc8n[nH]c(=O)c9ccccc89)ccc7F)CC6)CC5)CC4)c3)c2)C1` (centres unmarked) [Compound I-870], the IC50 with HCC1806 cells (Homo sapiens, 168 h) is 10 to 100 nM; with MDA-MB-436 cells (Homo sapiens, 168 h), less than 10 nM; at PARP1 [1], 10 to 100 nM; in the test with A2780 cells (Homo sapiens, 168 h), 10 to 100 nM; in test [2] (setting [4]) it was 10 to 100 nM.
For the compound `CC(C)(C)OC(=O)N[C@@H](C(=O)N1CCC(C)(OC2CCN(CC(=O)N3CCN(C(=O)c4cc(Cc5n[nH]c(=O)c6ccccc56)ccc4F)CC3)CC2)CC1)C1CCCCC1` [Compound I-871], the IC50 in the test with HCC1806 cells (Homo sapiens, 168 h) is 100 to 1000 nM; with MDA-MB-436 cells (Homo sapiens, 168 h), less than 10 nM; on PARP1 [1] it was 10 to 100 nM; in the test with A2780 cells (Homo sapiens, 168 h) it was 100 to 1000 nM; in test [2] (setting [4]), 10 to 100 nM.
`O=C(N[C@@H](C(=O)N1CCC(OC2CCN(CC(=O)N3CCN(C(=O)c4cc(Cc5n[nH]c(=O)c6ccccc56)ccc4F)CC3)CC2)CC1)C1CCCCC1)c1cccc(C2CCCN(C(=O)C34CC(F)(C3)C4)C2)c1F` (some centres unmarked) [Compound I-750]: the IC50 in the test on HCC1806 cells (Homo sapiens, 168 h) is 10 to 100 nM; with MDA-MB-436 cells (Homo sapiens, 168 h), less than 10 nM; at PARP1 [1] it was 10 to 100 nM; in the test with A2780 cells (Homo sapiens, 168 h), 10 to 100 nM; in test [2] (setting [4]), 10 to 100 nM.
For `O=C(CN1CCN(CC2CCN(C(=O)c3c(F)cc(-c4ccncn4)cc3F)CC2)CC1)N1CCN(C(=O)c2cc(Cc3n[nH]c(=O)c4ccccc34)ccc2F)CC1` [Compound I-768], the IC50 was 100 to 1000 nM with HCC1806 cells (Homo sapiens, 168 h); less than 10 nM with MDA-MB-436 cells (Homo sapiens, 168 h); 10 to 100 nM at PARP1 [1]; 100 to 1000 nM in the test on A2780 cells (Homo sapiens, 168 h); 10 to 100 nM in test [2] (setting [4]).
For the compound `CC(C)(C)OC(=O)N[C@@H](C(=O)NC12CCC(CN3CCC(C(=O)N4CCN(C(=O)c5cc(Cc6n[nH]c(=O)c7ccccc67)ccc5F)CC4)CC3)(CC1)OC2)C1CCCCC1` [Compound I-993], the IC50 is 10 to 100 nM in the test on HCC1806 cells; less than 10 nM in the test on MDA-MB-436 cells; 10 to 100 nM at PARP1 [1]; 10 to 100 nM in the test on A2780 cells; 10 to 100 nM in test [2] (U2OS cells, 6 hrs, 2 mM H2O2).
In the case of `CCc1cccc(-c2cnc(C(=O)NCCOCCNCC(=O)N3CCN(C(=O)c4cc(Cc5n[nH]c(=O)c6ccccc56)ccc4F)CC3)c(N)c2)c1` [Compound I-402], the IC50 in the test with HCC1806 cells (Homo sapiens, 168 h) was 10 to 100 nM; in the test with MDA-MB-436 cells (Homo sapiens, 168 h), less than 10 nM; at PARP1 [1] it was 100 to 1000 nM; in the test with A2780 cells (Homo sapiens, 168 h), 10 to 100 nM; in test [2] (setting [4]), 10 to 100 nM.
Consider `O=C(CN1CCN(CC2CCN(C(=O)c3c(F)cc(-c4ccccc4)cc3F)CC2)CC1)N1CCN(C(=O)c2cc(Cc3n[nH]c(=O)c4ccccc34)ccc2F)CC1` [Compound I-635], for which the IC50 was 10 to 100 nM in the test with HCC1806 cells (Homo sapiens, 168 h); less than 10 nM in the test on MDA-MB-436 cells (Homo sapiens, 168 h); 10 to 100 nM at PARP1 [1]; less than 10 nM in the test with A2780 cells (Homo sapiens, 168 h); less than 10 nM in test [2] (setting [4]).
`CC(C)(C)OC(=O)Nc1cc(-c2cccc(C#N)c2)cnc1C(=O)NCCOCCNCC(=O)N1CCN(C(=O)c2cc(Cc3n[nH]c(=O)c4ccccc34)ccc2F)CC1` [Compound I-818]: the IC50 in the test on HCC1806 cells (Homo sapiens, 168 h) was 100 to 1000 nM; in the test with MDA-MB-436 cells (Homo sapiens, 168 h), less than 10 nM; on PARP1 [1] it was 100 to 1000 nM; with A2780 cells (Homo sapiens, 168 h) it was 10 to 100 nM; in test [2] (setting [4]) it was 10 to 100 nM.
Take `O=C(N[C@@H](C(=O)N1CCN(CC(=O)N2CCN(C(=O)c3cc(Cc4n[nH]c(=O)c5ccccc45)ccc3F)CC2)CC1)C1CCCCC1)c1cccc(C2CCCN(C(=O)CNCc3ccc(F)cc3F)C2)c1` (some centres unmarked) [Compound I-963]: the IC50 was 100 to 1000 nM in the test with MDA-MB-436 cells (Homo sapiens, 168 h); less than 1 nM at PARP1 [3]; 100 to 1000 nM in the test with A2780 cells (Homo sapiens, 168 h); 100 to 1000 nM in test [2] (Homo sapiens, U2OS, 6 h).

Values taken from patent publication US20250127907A1, “PARP INHIBITORS” (Stablix, Inc., priority 2023, published 2025).
